# According to patent US20260226417A1, “METHOD FOR INHIBITING AGING OF STEM CELLS” (ENCELL CO., LTD, priority 2023, published 2026):
# Legend:
# [1] = tested on: SASP markers IL-6, MMP3, IGFBP3, IGFBP5, IGFBP7; assay: qRT-PCR of SASP markers at P10 after treatment at each passage; format: cell-based, human; details: 160 μM for 24 hours at each passage
# Procedure: (§1) Specifically, qRT-PCR performed in this example is as follows: after treating the replicative senescence model (P18) with nervonic acid for 3 days, total RNA was extracted using Trizol (Invitrogen, MA, USA) according to the method provided by the vendor. After quantifying the extracted total RNA, random hexamer and dNTP were added, and PCR was performed at 65° C. for 5 minutes. 5× SSIV buffer, 100 mM DTT, RNAse OUT, and Superscript IV RT were added and reverse transcription was performed to synthesize cDNA, and then qRT-PCR was performed to measure gene expression, and the expression levels were compared through 2^−ΔΔCt analysis.
# Example 8. Confirmation Of anti-senescence efficacy by treating various human tissue-derived mesenchymal stem cells with nervonic acid Human-derived mesenchymal stem cells were treated with nervonic acid (160 μM) at each passage during cell culture from control cells (P5) to P10 to determine whether continuous treatment with nervonic acid during cell culture at early passage numbers was able to delay cellular senescence.
# Specifically, from the day after human-derived mesenchymal stem cells were subcultured, treatment with 160 μM nervonic acid or an equivalent amount of DMSO (control) for 24 hours was performed, followed by replacement with the existing culture medium the next day. The above process was repeated to perform subculture up to P10 (passage 10). As such, B galactosidase staining for measuring cellular senescence was performed at P7, P8, P9, and P10, and cell doubling time and RNA extraction for qRT-PCR were both performed at P10. A more specific procedure therefor was carried out in the same manner as described above.
# [2] = tested on: SASP (senescence-associated secretory phenotype) markers MMP3, IGFBP5, IGFBP7; assay: qRT-PCR of SASP markers in replicative senescence model (P18); format: cell-based, human; details: 160 μM, 3 days
# Procedure: Additionally, there is a report in which the gene expression of SASP (senescence-associated secretory phenotype) is increased in senescent cells, so the expression of MMP3, IGFBP5, and IGFBP7 was assessed at the mRNA level through qRT-PCR.
# as §1
# [3] = tested on: human umbilical cord blood-derived mesenchymal stem cells (UCB-MSCs/passage 16); assay: β-galactosidase staining, senescent UCB-MSCs; format: cell-based; details: UCB-MSCs passage 16, 3 days
# Excerpt: Human placenta-derived mesenchymal stem cells (pl-mscs) Were Isolated From Placentas Separated according to the previously reported method of Choi et al. (PLOS ONE, (2017) 12 (2): e0172642), umbilical cord blood-derived mesenchymal stem cells (UCB-MSCs) were isolated from the umbilical cord blood separated according to the method of Kim et al. (FEBS Letters, (2010) 584:3601-3608), and adipose tissue-derived mesenchymal stem cells (AD-MSCs) were isolated from adipose tissue separated according to the previously reported method of Palumbo et al. (Int. J. Mol. Sci. (2018) 19:1987).
# Each of the obtained mesenchymal stem cells was subcultured in aMEM (a-modified Minimum Essential Media) containing 10% fetal bovine serum (FBS) and 0.5% gentamicin (10 mg/ml).
# The replicative senescence models of human adipose-derived mesenchymal stem cells (AD-MSCs/passage 18), human bone marrow-derived mesenchymal stem cells (BM-MSCs/passage 15), human umbilical cord blood-derived mesenchymal stem cells (UCB-MSCs/passage 16), and human placenta-derived mesenchymal stem cells (PL-MSCs/passage 18) established as described above were treated with nervonic acid for 3 days, and β-galactosidase staining was performed to observe the extent of senescence.
# [4] = tested on: Annexin V, an apoptosis marker, in muscle tissue; assay: Annexin V immunohistochemical staining in muscle tissue of muscle disease mouse model after injection of treated P18 cells; format: in vivo; details: P18 cells treated with 160 μM for 72 hours, 5×10^4 cells per mouse via tail vein, one week after injection
# Procedure: A replicative senescence model (P18) was treated with nervonic acid (160 μM) and then injected into a muscle disease mouse model to assess the effect of nervonic acid treatment on the therapeutic efficacy of the replicative senescence model (P18) in terms of reducing apoptosis in muscle tissue.
# Specifically, the muscle disease mouse model used was C57BL/10ScSn-Dmdmdx/J (mdx mouse) , and C57BL/10J with the same genetic background was used as a control group. All experiments were conducted using mice aged 4 to 5 months. The cells to be injected were human umbilical cord-derived young mesenchymal stem cells (control group) (P5) and replicative senescence model (P18). […]
# In order to assess the extent of apoptosis in the muscle tissue of a muscle disease mouse model after injecting mesenchymal stem cells for each condition, the extent of apoptosis in the tissue was determined through immunohistochemical staining for Annexin V, an apoptosis marker. […] Then, the secondary antibody (fluorescence-labeled polymer anti-rabbit) was added and incubated for […] followed by mounting, DAPI staining, washing, and then observation and photography under a fluorescence microscope.
# [5] = tested on: mesenchymal stem cell-positive markers CD44, CD73, CD90, CD105, CD166 and negative markers CD11b, CD14, CD19, CD34, CD45, HLA-DR; assay: Stemness analysis by FACS in replicative senescence model (P18); format: cell-based, human; details: 160 μM, 3 days
# Procedure: Example 6. Comparative analysis of stemness of gut microbiota-derived metabolite for senescence control A replicative senescence model (P18) was treated with nervonic acid (160 μM) to assess the effect thereof on stemness and adipogenesis.
# The replicative senescence model (P18) was treated with nervonic acid (160 μM), and the expression changes of the mesenchymal stem cell-positive markers CD44, CD73, CD90, CD105, and CD166, as well as the mesenchymal stem cell-negative markers CD11b, CD14, CD19, CD34, CD45, and HLA-DR were confirmed through FACS.
# Specifically, 3.6×10^6 cells treated with nervonic acid (160 μM) for 3 days were centrifuged, suspended in 1.2 ml of FACS buffer (PBS 98%+FBS 2%), and allowed to stand at room temperature for 30 minutes. Thereafter, 100 ul thereof was dispensed into each of 11 1.5 ml tubes (3×10^5 cells per tube), and a predetermined amount of antibody was added to each tube, followed by reaction at room temperature for 20 minutes in a light-blocking state. After washing by adding 200 μl of FACS buffer, centrifugation was performed at room temperature at 300 g for 5 minutes, the supernatant was removed, and the cells were suspended in 500 μl of FACS buffer and then transferred to a FACS tube for analysis.
structure (smiles),measurement,setting,value
CCCCCCCC/C=C\CCCCCCCCCCCCCC(=O)O [nervonic acid],"IGFBP3 mRNA expression, fold compared to control group (DMSO)",[1],0.77±0.03 fold
same,"IGFBP5 mRNA expression, fold compared to control group (DMSO)",[1],0.80±0.03 fold
same,"IGFBP7 mRNA expression, fold compared to control group (DMSO)",[1],0.91±0.03 fold
same,"IL-6 mRNA expression, fold compared to control group (DMSO)",[1],0.77±0.03 fold
same,"MMP3 mRNA expression, fold compared to control group (DMSO)",[1],0.65±0.07 fold
same,"IGFBP5 mRNA expression, fold compared to before treatment",[2],0.62±0.03 fold
same,"IGFBP7 mRNA expression, fold compared to before treatment",[2],0.77±0.03 fold
same,"MMP3 mRNA expression, fold compared to before treatment",[2],0.76±0.04 fold
same,progression of senescence (β-galactosidase staining) compared to control group (DMSO),[3],progression of senescence was significantly inhibited
same,Annexin V expression level (immunohistochemical staining) compared to mdx control group,[4],significantly reduced
same,"expression of CD11b, a mesenchymal stem cell-negative marker",[5],decreased
same,"expression of mesenchymal stem cell-positive markers CD44, CD73, CD90, CD105, and CD166",[5],restored
